Results taken from PubChem BioAssay (NCI).
Values joined by “and” are separate entries in the source; they are usually repeats but may differ in a detail not shown here. Equal values may be shown once.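 Grown in 96-well plates, cells were treated for 48 hours with each compound at five concentrations. Insufficient inhibition: endpoint recorded as highest concentration tested. Abbreviation: GI50, concentration required for 50% inhibition of growth. The concentration for full growth arrest is given as TGI.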

What was measured:
Test in all cases: inhibition of tumour cell growth, NCI panel, 48 h
NCI-H522 lung = system: NCI-H522 lung
SF-295 CNS = system: SF-295 CNS
SK-MEL-28 melanoma = system: SK-MEL-28 melanoma
COLO 205 colon = system: COLO 205 colon
DMS 114 small cell lung = system: DMS 114 small cell lung
HOP-18 NSCLC = system: HOP-18 NSCLC
LXFL 529 NSCLC = system: LXFL 529 NSCLC
KM20L2 colon = system: KM20L2 colon
DLD-1 colon = system: DLD-1 colon
SNB-78 CNS = system: SNB-78 CNS
DMS 273 small cell lung = system: DMS 273 small cell lung

| SMILES | TGI (NCI-H522 lung) | TGI (SF-295 CNS) [µM] | TGI (SK-MEL-28 melanoma) [µM] | TGI (COLO 205 colon) [µM] | also measured |
| --- | --- | --- | --- | --- | --- |
| CCOC(=O)C(NC(=O)CC(C)C)(Nc1ccc(S(=O)(=O)Nc2nc(C)cc(C)n2)cc1)C(F)(F)F (stereo not given) | > 100 µM | > 100 | > 100 | > 100 | – |
| Cc1ccc(S(=O)(=O)NC2C(=O)c3ccccc3C(=O)C2n2cnc3ccccc32)cc1 (stereo not given) | – | > 100 | > 100 | > 100 | – |
| CCCCCCCCC/C=C1\CC(CO)(COC(=O)C2CCCCC2)OC1=O (stereo not given) | 34.6 µM | 34.1 | 30.5 | 30.9 | – |
| COc1cc(C2c3cc4c(cc3OC(Nc3ccccc3)C2C)OCO4)cc(OC)c1OC (stereo not given) | 2.04 µM | 3.52 | > 100 | 14.5 | – |
| N#Cc1c(Cl)c2ccccc2n2c1nc1ccccc12 | – | > 100 | > 100 | 41.9 | – |
| CCSC1=N/C(=C\c2ccco2)C(Cl)=N1 | – | > 100 | > 100 | > 100 | – |
| O=c1oc2ccccc2c(O)c1C(c1ccc(/C=C/c2ccccc2)cc1)c1c(O)c2ccccc2oc1=O | 49.1 µM | – | 86.9 | 71.8 | – |
| C=C1CC(C)(COc2ccc3ccc(=O)oc3c2)OC1=O (stereo not given) | 2.84 µM | 20.8 | 11.2 | 4.42 | – |
| CN(C)C(=O)Nc1cc2c3c(c1)CCCN3CCC2 | > 10 µM | > 10 | > 10 | > 10 | – |
| NNc1nc2ccccc2s1 | > 100 µM | – | > 100 | > 100 | – |
| COc1cc(NCc2ccc3nc(OC)c(OC)nc3c2)cc(OC)c1OC | > 100 µM | > 100 | > 100 | > 100 | – |
| Cn1c(Nc2ccccc2)c(C=Nc2ccccc2)c(=O)n(C)c1=O | – | > 100 | > 100 | – | – |
| CCOC(=O)c1c(-c2ccc(O)c(OC)c2)c(C#N)c(=S)n(C2OC(COC(C)=O)C(OC(C)=O)C(OC(C)=O)C2OC(C)=O)c1-c1ccccc1 (stereo not given) | 51.3 µM and 54.4 µM | > 100 | > 100 | > 100 | – |
| O=c1[nH]nc(Cc2ccccc2)n1/N=C/c1ccccc1Cl | > 100 µM | > 100 | – | > 100 | – |
| Cn1c(NS(=O)(=O)c2ccccc2)nc2ccccc21 | > 100 µM | > 100 | > 100 | > 100 | – |
| O=C(O)c1ccc(Nc2nc3ccccc3nc2-c2cccs2)cc1 | > 100 µM | > 100 | > 100 | > 100 | – |
| CC/C=C/C(=O)CC(O)(C(F)(F)F)C(F)(F)F | – | > 100 | > 100 | > 100 | – |
| COc1cc(Nc2cnc3cc(F)c(F)cc3n2)cc(OC)c1 | 42.4 µM | > 100 | > 100 | > 100 | – |

| SMILES | TGI (NCI-H522 lung) | TGI (SF-295 CNS) [µM] | TGI (SK-MEL-28 melanoma) [µM] | TGI (COLO 205 colon) [µM] | also measured |
| --- | --- | --- | --- | --- | --- |
| COc1cccc2c(Nc3ccc(S(=O)(=O)NC(C)=O)cc3)c3ccc([N+](=O)[O-])cc3nc12 | > 100 µM | > 100 | > 79.5 | > 95.7 | – |
| COC(=O)c1ccccc1/C=C1\Cc2cc(C)cc(C)c2C1=O | > 100 µM | > 100 | > 100 | – | – |
| CCN(CC)C(=S)SNCc1ccc(S(N)(=O)=O)cc1 | 22.2 µM | 34.9 | > 48.9 | 27.7 | – |
| c1cn2cc(-c3ccc4ncn(C5CCCCC5)c4c3)nc(-c3ccc4c(c3)ncn4C3CCCCC3)c2n1 | – | 3.15 | 3.41 | 3.79 | GI50 (SF-295 CNS): 1.71 µM; GI50 (SK-MEL-28 melanoma): 1.81 µM; GI50 (COLO 205 colon): 1.93 µM |
| CC(=O)OC1COC(n2c(-c3ccc(Cl)cc3)cc(-c3ccccc3)c(C#N)c2=S)C(OC(C)=O)C1OC(C)=O (stereo not given) | > 100 µM | 31.7 | > 45.8 | > 64.2 | – |
| NC(=O)C(c1ccccc1)N1OC2C(=O)N(c3cccc4ccccc34)C(=O)C2C1c1c2ccccc2c(Cl)c2ccccc12 (stereo not given) | 44.3 µM | 23.9 | 34.6 | 14.9 | – |
| CN(C(=O)Cc1ccc(Cl)c(Cl)c1)[C@@H]1CCCC[C@H]1[N+]1(C)CC=CC1 | > 100 µM | > 100 | > 100 | > 100 | – |
| COC(=O)C1=C(\c2ccccc2)c2ccccc2C(=O)N(C2CCCCC2)/C=C\1 | > 100 µM | > 100 | 39.8 | 28.8 | – |
| COC(=O)C(=O)C(C(=O)C(=O)Nc1ccccc1C(C)=O)c1nc2ccc(C(=O)c3ccccc3)cc2[nH]c1=O (stereo not given) | > 100 µM | > 100 | – | – | – |
| O=C(c1cccs1)N(C(=S)N1CCN(c2ccccn2)CC1)C1CCCCC1 | > 100 µM | > 100 | > 100 | 46.8 | TGI (DMS 114 small cell lung): > 100 µM; TGI (HOP-18 NSCLC): > 100 µM; TGI (LXFL 529 NSCLC): > 100 µM; TGI (KM20L2 colon): > 100 µM; TGI (DLD-1 colon): > 100 µM; TGI (SNB-78 CNS): > 100 µM; TGI (DMS 273 small cell lung): > 100 µM |
| Cc1cc(NCCCCCCCCCC[n+]2c(C)cc(N)c3ccccc32)c2ccccc2n1 | > 100 µM | 13.6 | 3.82 | 1.22 | – |
| C=C(Br)CN(C(C)=O)C1CCCCC1 | > 100 µM | > 100 | > 100 | > 100 | – |
| C(=NCc1ccccc1)c1ccccc1-c1ccccc1C=NCc1ccccc1 | > 10 µM | > 10 | > 10 | > 10 | – |
| COc1ccc(NC(C)=O)cc1C1CCC(=O)N1 (stereo not given) | > 100 µM | > 100 | > 100 | > 100 | – |
| COc1ccc(C(c2c[nH]c3ccc(Br)cc23)c2c[nH]c3ccc(Br)cc23)cc1 | 0.397 µM | 1.17 | 0.743 | 0.347 | – |
| CC1(C)CCCCCCC2OC2CCCCCC(C)(C)C1=O (stereo not given) | > 80.4 µM | > 67.3 | > 100 | 29.5 | – |
| COc1ccc(C2=C(N)c3c(OC)cccc3C2=O)cc1 | – | > 100 | > 100 | > 100 | – |
| NC1=NN(c2ccccc2)C2(O)c3ccncc3C3=NN(c4ccccc4)C(=O)C132 (stereo not given) | > 100 µM | > 100 | > 100 | > 100 | – |
